Assay results taken from patent US8735152B2, “Methods for inducing cell death in pluripotent stem cells and differentiated cells other than cardiac myocytes” (Daiichi Sankyo Company, Limited, priority 2009, dated 2014).

Tests used:
Format in all cases: cell-based
[1] = system: human embryonic stem cells; experiment: Cell death inducing effect on human embryonic stem cells (TMRM FACS, 5-day adherent culture); settings: 0.45 M
Method: The human embryonic stem cells were obtained from Stem Cell Research Center, Institute for Frontier Medical Sciences, Kyoto University (ES cell center sponsored by the National Bio-Resource Project) (Suemori, H et al., Biochem. Biophys. Res. Commun., Vol. 345, 2006, pp. 926-932). The cells were cultured basically in accordance with the method described in this document. To be more specific, the human embryonic stem cells were cultured to maintain their undifferentiated state using mouse embryonic fibroblasts (MEF) that had been inactivated for growth by treatment with mitomycin C. The culture medium of F12/DMEM (1:1) (SIGMA; Product No. D6421), supplemented with 20% KO-SERUM (GIBCO), 1.6 mM L-glutamine, 0.1 mM non-essential amino acids (MEM), 0.1 mM β-mercaptoethanol (2-ME; Sigma), 100 IU/ml penicillin, 100 μg/ml streptomycin sulfate, and recombinant human basic fibroblast growth factor (bFGF; Reprotech) was used. Upon passaging, the cells were treated with 0.1% type III collagenase (Wortington) at 37° C. for 10 minutes to separate embryonic stem cell colonies. After passaging, the cells were dispersed with each other using TE (0.25% trypsin (GIBCO) and 1 mM EDTA) and in accordance with a published document (Watanabe, K. et al., Nat. Biotechnol., 2007, 25: 681-686, Epub 2007 May 27), 10 μM of a ROCK inhibitor (Y27632) was added to suppress cell death. At the same time, the mitochondria in the live cells were stained with 50 nM TMRM. Part of the stained cells were treated with an α-MEM culture medium containing 0.45 M mannitol (approximately equivalent to 720 mOsm/kg) for 2, 3 or 4 hours and three samples were prepared from these cells; the rest of the stained cells were treated with a mannitol-free α-MEM culture medium for 2 hours and a sample was prepared from these cells as a control. In the control, cells were aggregated with each other to make masses, so before FACS analysis, the treated groups and the control were given another treatment with trypsin and EDTA to disperse the cells. The cells treated with mannitol for 2, 3 or 4 hours and the control cells were analyzed by FACS for the level of mitochondrial membrane potential on the basis of the fluorescent intensity of TMRM to check the state of survival of the stem cells; the results are shown in FIG. 7. […] In addition, the TMRM-stained cells were photographed, both for the case of 2-h treatment with mannitol and for the control (FIG. 8)). […] Changes in the mitochondrial membrane potential were observed using the experimental technique of Example 5, provided that the human embryonic stem cells were treated not with mannitol, but with 0.45 M of various other saccharides (sugar alcohols: sorbitol and xylitol; sugars: sucrose and glucose; betaines: trimethylglycine) (approximately equivalent to 750-780 mOsm/kg) for 2 hours.

[2] = system: human induced pluripotent stem cells (iPS cells); experiment: Cell death inducing effect on human induced pluripotent stem cells (TMRM, FACS); settings: 0.45 M, 2 hours
Method: The human iPS cells were obtained from Stem Cell Research Center, Institute for Frontier Medical Sciences, Kyoto University (ES cell center sponsored by the National Bio-Resource Project). The cells were cultured basically in accordance with the same method as that in the case of human embryonic stem cells, i.e., in accordance with the same method as described in Example 5. After passaging, the cells were dispersed with each other using TE (0.25% trypsin (GIBCO) and 1 mM EDTA) and in accordance with a published document (Watanabe, K. et al., Nat. Biotechnol., 2007, 25: 681-686, Epub 2007 May 27), 10 μM of a ROCK inhibitor (Y27632) was added to suppress cell death. At the same time, the mitochondria in the live cells were stained with 50 nM TMRM. […] In the control, cells were aggregated with each other to make masses, so before FACS analysis, both samples were given another treatment with trypsin and EDTA to disperse the cells; thereafter, the samples were analyzed by FACS for the level of mitochondrial membrane potential on the basis of the fluorescent intensity of TMRM to check the state of survival of the stem cells; the results are shown in FIG. 12. […]

[3] = system: cardiomyocyte containing mouse embryoid bodies; experiment: Low-concentration mannitol treatment of cardiomyocyte containing mouse embryoid bodies; settings: 0.2 M, 72 hours
Method: Additionally, similar to the method described in Example 1, 75 mouse embryonic stem cells per EB were cultured as cell masses for a total of 7 days by the hanging-drop technique using a culture medium [α-MEM (minimum essential medium) (SIGMA), supplemented with 10% FBS (EQUITEC BIO), 100 units/ml penicillin, and 50 μg/ml streptomycin (GIBCO)], whereby the stem cells were differentiated into cell masses containing cardiomyocytes; thereafter, the embryoid bodies were adhered to the culture dish and cultured for another 3-5 days under the conditions of 37° C. and 5% CO2.

## OC[C@@H](O)[C@@H](O)[C@H](O)[C@H](O)CO [mannitol]
[1]; 2 hours
  Mitochondrial membrane potential (TMRM fluorescence, FACS): almost all of the cells treated with mannitol for 2 hours had lost membrane potential
[1]; 2 hours, photographs of TMRM-stained cells
  Self-aggregation of cells immediately after treatment: remained dispersed
[1]; then 5 days adherent culture
  Survival after adherent culture for 5 days: none of the cells exposed to mannitol were found live
[2]
  Mitochondrial membrane potential (TMRM fluorescence, FACS): almost all of the cells treated with mannitol for 2 hours had lost membrane potential
[3]
  State of cells other than cardiomyocytes and of cardiomyocytes: almost all cells other than cardiomyocytes had died and only the cardiomyocytes survived selectively
